For twelve compounds, IC50 results are on record in patent US10407414B2, “Mannose derivatives for treating bacterial infections” (priority 2015, dated 2019).

This experiment deals with bacterial strain LF82 binding to the glycoprotein BSA-(Mannose)3 (FimH antagonists). In words: Bacterial Binding Assay (BBA). It is filed as cell-based, Escherichia coli. To be noted: read-out: Bacterial Binding Assay IC50 ± SEM. An excerpt:
The purpose of the Bacterial Binding Assay (BBA) is to determine the inhibition activity of selective FimH antagonists on the bacterial strain LF82 binding to the glycoprotein BSA-(Mannose)3.
Below is a list of the Materials used to run the BBA are described below. • 1. LB broth: Supplier: Gibco, #10855 • 2. D-PBS: Supplier: Wisent, #311-425-CL • 3. LB agar plates • 4. 96-well black plate (high binding): Supplier: Costar, #3925 • 5. TopSeal™-A adhesive sealing films; Supplier PerkinElmer, #6005185 • 6. Carbonate-bicarbonate buffer pH 9.6 tablets, Supplier: Medicago, #09-8922-24 • 7. Water, Supplier: Gibco, #15230-162 • 8. Bovine serum albumin (BSA): Supplier: Sigma, #A-7888 • 9. (Man)3-BSA (α1-3, α1-6 Mannotriose-BSA, 1 mg), V-Labs, #NGP1336, lot# HGDX37-169-1 • 10. Tween 20: Supplier: Sigma, #P9416 • 11. Bright-Glo Luciferase Assay System: Supplier: Promega, #E2610 • 12. LF82/Luciferase strain: Invasive ability of an Escherichia coli strain isolated from the ileal mucosa of a patient with Crohn's disease. Boudeau J, Glasser A L, Masseret E, Joly B, Darfeuille-Michaud A, Infect Immun. 1999, 67(9), 4499-509
Solutions and buffers used to run the BBA are described below. • 1. 0.04M carbonate-bicarbonate buffer (coating buffer) • 2. 40 μg/mL BSA-(Man)3: Dissolve 1 mg of (Man)3-BSA in 25 mL of water. • 3. 4000 μg/mL BSA • 4. 40 μg/mL BSA • 5. 1 μg/mL BSA-(Man)3: 150 μL of 40 μg/mL BSA-(Man)3+5.85 mL of 40 μg/mL BSA • 6. 0.5 μg/mL BSA-(Man)3 in 0.02M carbonate-bicarbonate buffer. • 7. 20 μg/mL BSA in 0.02M carbonate-bicarbonate buffer • 8. Blocking buffer (2% BSA/DPBS): 1 g of BSA in 50 mL D-PBS • 9. 2× binding buffer (0.2% BSA/D-PBS): 5 mL of blocking buffer+45 mL D-PBS. • 10. Washing buffer (D-PBS/0.01% Tween 20): 10 μL of Tween 20 in 100 mL D-PBS. • 11. 1× Bright-Glo Luciferase substrate: Dilute 1:1 the Bright-Glo Luciferase Assay System with D-PBS
The experimental protocol used in this example to run the BBA is described below.
Overnight culture of LF82/Luciferase strain: Into two Falcon 50 mL tubes, add 20 mL of LB+20 μL of 50 mg/mL Kanamycin and inoculate with a loop from glycerol stock of the LF82/Luciferase strain. Incubate overnight at 37° C. with no shaking.
Glycoprotein coating of 96-well plates: Add 100 μL/well of 0.5-2 μg/mL BSA-(Man)3. 20 μg/mL BSA is used as the control background. Seal plate using an adhesive sealing film and incubate overnight at room temperature. Wash the 96-well plate three times with 150 μL/well of D-PBS, add 170 μL/well of blocking solution and incubate 45 min (minimum) at room temperature.
Preparation of bacterial suspension: Mix the two cultures tubes (40 mL) and perform a 1:10 dilution in LB (900 μl LB+100 μl culture. Measure optical density (OD) of the bacterial cultures. OD1 ˜5×10^8 cells/mL. Centrifuge LF82 culture for 20 min at 3500 rpm at room temperature. Re-suspend bacterial pellet in D-PBS and centrifuge again for 20 min at 3500 rpm. Re-suspend bacterial pellet in D-PBS to obtain a bacterial concentration of 2×10^9 bacteria/mL. Dilute 1/10 in D-PBS to obtain a final bacterial concentration of 2×10^8 bacteria/mL (=107 bacteria/50 μL). Perform 1/10 serial dilutions in LB of each bacterial suspension, plate 10 μL of dilutions on LB agar plates (final dilutions of 10^−7) and incubate overnight at 37° C. and count CFUs to determine the actual bacteria density in the assay.
Bacterial binding assay: Add 147 μL 2× binding buffer to compound plate (containing 3 μL of compound). After blocking step is performed (at least 45 min), wash plates three times with 200 μL/well of D-PBS. With a 100 μL multichannel manual pipettor, add 50 μL/well of compound diluted in 2× binding buffer. With a 100 μL multichannel manual pipettor, add 50 μL/well of bacterial suspension. Agitate at slow speed for 1 min and incubate 40-75 min at room temperature. Wash 5 times with 150 μL/well of washing buffer and then once with D-PBS. Add 100 μL/well of 1× Bright-Glo Luciferase substrate. […]

For `COc1cccc(-c2cc(C#C[C@H]3O[C@H](CO)[C@@H](O)[C@H](O)[C@@H]3O)c3[nH]ncc3c2)c1` [Compound 38, (2R,3S,4R,5S,6R)-2-(hydroxymethyl)-6-[2-[5-(3-methoxyphenyl)-1H-indazol-7-yl]ethynyl]tetrahydropyran-3,4,5-triol], the IC50 stood at 0.8 ± 0.5 nM.

As for `OC[C@H]1O[C@H](C#Cc2cc(-c3ccc(F)cc3F)cc3cn[nH]c23)[C@@H](O)[C@@H](O)[C@@H]1O` [Compound 81, (2R,3S,4R,5S,6R)-2-[2-[5-(2,4-difluorophenyl)-1H-indazol-7-yl]ethynyl]-6-(hydroxymethyl)tetrahydropyran-3,4,5-triol], the IC50 turned out to be 0.4 ± 0.2 nM.

Consider `CCc1ccc(/C=C/c2cc(C#C[C@H]3O[C@H](CO)[C@@H](O)[C@H](O)[C@@H]3O)c3[nH]ncc3c2)cc1` [Compound 69, (2R,3S,4R,5S,6R)-2-[2-[5-[(E)-2-(4-ethylphenyl)vinyl]-1H-indazol-7-yl]ethynyl]-6-(hydroxymethyl)tetrahydropyran-3,4,5-triol], for which the IC50 turned out to be 13 ± 9 nM.

As to `OC[C@H]1O[C@H](C#Cc2cccc3cn[nH]c23)[C@@H](O)[C@@H](O)[C@@H]1O` [Compound 1, (2R,3S,4R,5S,6R)-2-(hydroxymethyl)-6-[2-(1H-indazol-7-yl)ethynyl]tetrahydropyran-3,4,5-triol], the IC50 came out at 98 ± 22 nM.

Turning to `Cc1cc(C#C[C@H]2O[C@H](CO)[C@@H](O)[C@H](O)[C@@H]2O)c2cn[nH]c2c1` [Compound 7, (2R,3S,4R,5S,6R)-2-(hydroxymethyl)-6-[2-(6-methyl-1H-indazol-4-yl)ethynyl]tetrahydropyran-3,4,5-triol], the IC50 was 76 ± 26 nM.

Turning to `O=C(NC1CCCC1)c1cc(C#C[C@H]2O[C@H](CO)[C@@H](O)[C@H](O)[C@@H]2O)c2[nH]ncc2c1` [Compound 64, N-cyclopentyl-7-[2-[(2R,3S,4R,5S,6R)-3,4,5-trihydroxy-6-(hydroxymethyl)tetrahydropyran-2-yl]ethynyl]-1H-indazole-5-carboxamide], the IC50 came out at 50 ± 7 nM.

As to `OC[C@H]1O[C@H](C#Cc2cc(-c3ccc4c(c3)OCO4)cc3cn[nH]c23)[C@@H](O)[C@@H](O)[C@@H]1O` [Compound 37, (2R,3S,4R,5S,6R)-2-[2-[5-(1,3-benzodioxol-5-yl)-1H-indazol-7-yl]ethynyl]-6-(hydroxymethyl)tetrahydropyran-3,4,5-triol], the IC50 turned out to be 0.7 ± 0.02 nM.

On to `OC[C@H]1O[C@H](C#Cc2cc(Br)cc3cn[nH]c23)[C@@H](O)[C@@H](O)[C@@H]1O` [Compound 16, (2R,3S,4R,5S,6R)-2-[2-(5-bromo-1H-indazol-7-yl)ethynyl]-6-(hydroxymethyl)tetrahydropyran-3,4,5-triol], for which the IC50 worked out at 8 ± 1 nM.

Turning to `OC[C@H]1O[C@H](C#Cc2cc(C3=CCOCC3)cc3cn[nH]c23)[C@@H](O)[C@@H](O)[C@@H]1O` [Compound 68, (2R,3S,4R,5S,6R)-2-[2-[5-(3,6-dihydro-2H-pyran-4-yl)-1H-indazol-7-yl]ethynyl]-6-(hydroxymethyl)tetrahydropyran-3,4,5-triol], the IC50 came to 1 ± 0.4 nM.

Turning to `O=[N+]([O-])c1ccc(-c2cc(C#C[C@H]3O[C@H](CO)[C@@H](O)[C@H](O)[C@@H]3O)c3[nH]ncc3c2)cc1` [Compound 28, (2R,3S,4R,5S,6R)-2-(hydroxymethyl)-6-[2-[5-(4-nitrophenyl)-1H-indazol-7-yl]ethynyl]tetrahydropyran-3,4,5-triol], the IC50 amounted to 0.6 ± 0.4 nM.

Regarding `CCCN(C)C(=O)c1cc(C#C[C@H]2O[C@H](CO)[C@@H](O)[C@H](O)[C@@H]2O)c2[nH]ncc2c1` [Compound 65, N-methyl-N-propyl-7-[2-[(2R,3S,4R,5S,6R)-3,4,5-trihydroxy-6-(hydroxymethyl)tetrahydropyran-2-yl]ethynyl]-1H-indazole-5-carboxamide], the IC50 is 0.8 ± 0.1 nM.

Consider `OC[C@H]1O[C@H](C#Cc2cccc3[nH]ncc23)[C@@H](O)[C@@H](O)[C@@H]1O` [Compound 3, (2R,3S,4R,5S,6R)-2-(hydroxymethyl)-6-[2-(1H-indazol-4-yl)ethynyl]tetrahydropyran-3,4,5-triol], for which the IC50 was 110 ± 10 nM.

The IC50 is the concentration needed to halve the response being measured.
